In patent US10774080B2, “Pyrimidine compound as JAK kinase inhibitor” (THERAVANCE BIOPHARMA R&D IP, LLC, priority 2017, dated 2020):
Entries after “also recorded” stand apart in the source; their conditions may differ. Where two headings read alike, the source gives them in different places.

Assays:
[1] = test system: IL-13-induced STAT6 phosphorylation in BEAS-2B cells; assay: Assay 2: cellular JAK potency, IL-13-induced STAT6 phosphorylation in BEAS-2B cells; format: cell-based; conditions: Homo sapiens, read-out: pIC50 for inhibition of IL-13 induced STAT6 phosphorylation (converted)
Experimental: Assay 2: Cellular JAK Potency Assay: Inhibition of IL-13-Induced STAT6 Phosphorylation in BEAS-2B Cells
The cellular potency assay for JAK inhibition was carried out by measuring interleukin-13 (IL-13, R&D Systems) induced STAT6 phosphorylation in BEAS-2B human lung epithelial cells (ATCC). The anti-STAT6 antibody (Cell Signaling Technologies) was conjugated to AlphaScreen acceptor beads (Perkin Elmer), while the anti-pSTAT6 (pTyr641) antibody (Cell Signaling Technologies) was biotinylated using EZ-Link Sulfo-NHS-Biotin (Thermo Scientific).
BEAS-2B cells were grown at 37° C. in a 5% CO2 humidified incubator in 50% DMEM/50% F-12 medium (Life Technologies) supplemented with 10% FBS (Hyclone), 100 U/mL penicillin, 100 μg/mL streptomycin (Life Technologies), and 2 mM GlutaMAX (Life Technologies). […] After a minimum of 2 h incubation, the assay plates were read on the EnVision plate reader. AlphaScreen luminescence signals were recorded and utilized to calculate the percent inhibition values based on DMSO and background controls.
For dose-response analysis, percent inhibition data were plotted vs. compound concentrations, and IC50 values were determined from a 4-parameter robust fit model with the Prism software. Results may also be expressed as the negative logarithm of the IC50 value, pIC50.

JAK1 = target: T1, JAK1 (Homo sapiens, UniProt P23458); assay: Biochemical JAK kinase assay (LanthaScreen), JAK1; conditions: converted from pIC50 by Cheng-Prusoff; ATP at Km 25 μM; read-out: JAK 1 (pKi) (converted)
T1 construct: GST; purchased Life Technologies
T1 sequence (P23458 whole entry): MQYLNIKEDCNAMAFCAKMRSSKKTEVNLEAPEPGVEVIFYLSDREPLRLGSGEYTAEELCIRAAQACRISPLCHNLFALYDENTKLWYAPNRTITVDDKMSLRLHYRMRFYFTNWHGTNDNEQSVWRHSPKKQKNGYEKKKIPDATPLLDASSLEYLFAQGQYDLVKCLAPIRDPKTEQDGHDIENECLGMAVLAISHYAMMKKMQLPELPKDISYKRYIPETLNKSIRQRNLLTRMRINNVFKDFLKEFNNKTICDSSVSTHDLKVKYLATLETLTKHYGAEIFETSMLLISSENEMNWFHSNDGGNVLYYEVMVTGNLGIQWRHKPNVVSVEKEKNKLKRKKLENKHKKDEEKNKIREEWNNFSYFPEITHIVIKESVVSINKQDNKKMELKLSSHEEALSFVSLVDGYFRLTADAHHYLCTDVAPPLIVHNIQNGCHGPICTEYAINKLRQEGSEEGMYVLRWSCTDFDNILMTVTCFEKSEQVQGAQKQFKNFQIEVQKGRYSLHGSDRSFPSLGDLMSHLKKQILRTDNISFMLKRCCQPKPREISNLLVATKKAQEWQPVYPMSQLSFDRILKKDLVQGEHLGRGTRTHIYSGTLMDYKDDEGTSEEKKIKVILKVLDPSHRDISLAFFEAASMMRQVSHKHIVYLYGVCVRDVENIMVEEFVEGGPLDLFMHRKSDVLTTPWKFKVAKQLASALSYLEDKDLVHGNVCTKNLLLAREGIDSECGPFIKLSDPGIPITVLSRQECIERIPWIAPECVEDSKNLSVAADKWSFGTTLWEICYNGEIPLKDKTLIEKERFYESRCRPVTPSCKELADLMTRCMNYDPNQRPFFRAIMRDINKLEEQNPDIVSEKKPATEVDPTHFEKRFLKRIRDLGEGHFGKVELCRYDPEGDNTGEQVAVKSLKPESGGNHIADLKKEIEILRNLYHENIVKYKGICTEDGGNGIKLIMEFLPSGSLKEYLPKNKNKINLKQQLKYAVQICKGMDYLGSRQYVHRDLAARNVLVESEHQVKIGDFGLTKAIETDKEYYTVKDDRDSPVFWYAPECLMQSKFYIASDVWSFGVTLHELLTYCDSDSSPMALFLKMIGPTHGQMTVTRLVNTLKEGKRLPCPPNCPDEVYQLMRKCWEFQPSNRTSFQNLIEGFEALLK
Experimental: (§1) Assay 1: Biochemical JAK and Tyk2 Kinase Assays A panel of four LanthaScreen JAK biochemical assays (JAK1, 2, 3 and Tyk2) were carried in a common kinase reaction buffer (50 mM HEPES, pH 7.5, 0.01% Brij-35, 10 mM MgCl2, and 1 mM EGTA). Recombinant GST-tagged JAK enzymes and a GFP-tagged STAT1 peptide substrate were obtained from Life Technologies. Serially or discretely diluted compounds were pre-incubated with each of the four JAK enzymes and the substrate in white 384-well microplates (Corning) at ambient temperature for 1 h. ATP was subsequently added to initiate the kinase reactions in 10 μL total volume, with 1% DMSO. […] The plates were allowed to incubate at ambient temperature for 1 h before being read on the EnVision reader (Perkin Elmer). Emission ratio signals (520 nm/495 nm) were recorded and utilized to calculate the percent inhibition values based on DMSO and background controls. For dose-response analysis, percent inhibition data were plotted vs. compound concentrations, and IC50 values were determined from a 4-parameter robust fit model with the Prism software (GraphPad Software). Results were expressed as pIC50 (negative logarithm of IC50) and subsequently converted to pKi (negative logarithm of dissociation constant, Ki) using the Cheng-Prusoff equation.

JAK2 = target: T2, JAK2 (Homo sapiens, UniProt O60674); assay: Biochemical JAK kinase assay (LanthaScreen), JAK2; conditions: converted from pIC50 by Cheng-Prusoff; ATP at Km 3 μM; read-out: JAK 2 (pKi) (converted)
T2 construct: GST; purchased Life Technologies
T2 sequence (O60674 whole entry): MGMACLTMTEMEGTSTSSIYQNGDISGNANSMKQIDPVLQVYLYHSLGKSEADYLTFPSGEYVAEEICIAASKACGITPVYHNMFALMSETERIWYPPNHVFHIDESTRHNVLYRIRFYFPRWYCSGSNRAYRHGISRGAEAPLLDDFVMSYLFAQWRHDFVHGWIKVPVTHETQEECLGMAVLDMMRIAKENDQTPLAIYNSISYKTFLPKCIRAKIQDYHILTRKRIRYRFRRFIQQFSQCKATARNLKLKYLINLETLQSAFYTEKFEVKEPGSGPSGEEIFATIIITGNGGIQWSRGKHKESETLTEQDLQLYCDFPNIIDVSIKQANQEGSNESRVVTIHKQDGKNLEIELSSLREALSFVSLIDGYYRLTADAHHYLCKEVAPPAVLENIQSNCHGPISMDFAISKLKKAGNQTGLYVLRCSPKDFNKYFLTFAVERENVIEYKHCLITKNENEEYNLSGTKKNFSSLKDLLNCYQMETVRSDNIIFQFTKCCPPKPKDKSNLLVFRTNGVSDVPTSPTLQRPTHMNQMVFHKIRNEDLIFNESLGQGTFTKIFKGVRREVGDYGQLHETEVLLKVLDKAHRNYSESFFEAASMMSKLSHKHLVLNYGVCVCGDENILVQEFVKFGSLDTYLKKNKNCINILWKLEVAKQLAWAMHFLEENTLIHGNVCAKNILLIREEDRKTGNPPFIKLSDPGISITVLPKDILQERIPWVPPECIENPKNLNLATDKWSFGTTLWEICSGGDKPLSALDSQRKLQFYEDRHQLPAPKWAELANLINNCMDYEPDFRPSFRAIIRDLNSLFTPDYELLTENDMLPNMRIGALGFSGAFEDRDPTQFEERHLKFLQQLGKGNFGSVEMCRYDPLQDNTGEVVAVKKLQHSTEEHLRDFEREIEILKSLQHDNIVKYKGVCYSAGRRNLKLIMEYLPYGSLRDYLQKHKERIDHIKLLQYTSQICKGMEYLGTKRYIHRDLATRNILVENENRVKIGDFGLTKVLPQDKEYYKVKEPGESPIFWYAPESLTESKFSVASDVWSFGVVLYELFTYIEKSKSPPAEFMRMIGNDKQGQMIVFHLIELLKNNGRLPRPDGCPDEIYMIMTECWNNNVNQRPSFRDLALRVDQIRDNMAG
Experimental: as §1

[2] = test system: TPA-induced increase in ear thickness; assay: Assay 10: in vivo TPA-induced acute dermatitis model in mice; set-up: species or system female Balb/c mice
Experimental: Assay 10: In Vivo TPA-Induced Acute Dermatitis Model in Mice
The objective of this assay is to assess the anti-inflammatory effect of compound (I), in a model of acute dermatitis being studied for cutaneous inflammatory conditions such as atopic dermatitis (Dong et al., J Pharmacol Exp Ther, 2013, 344, 436-446).
Topical dermal application of phorbol ester TPA in mice causes an inflammatory response that is characterized by edema and neutrophil influx at the early phase (2-24 h) and by epidermal cell proliferation at the later phase (24-48 h) (Griffiths et al., Agents and Actions, 1988, 25, 344-351). In this model, female Balb/c mice were topically administered with 20 μl/ear of either vehicle or TPA (2.5 μg). For the solution formulation, vehicle (1:7 DMSO:Acetone) or test compound was topically applied 30 min before and 15 min after TPA administration. For the ointment formulation, vehicle or compound (I) (0.5% strength) was applied 30 min before TPA. The degree of inflammation was assessed as the change in ear thickness at 6 hours after TPA application.

CCS(=O)(=O)N1[C@@H]2CCC[C@H]1C[C@H](N(C)c1nc(CO)c(F)c(Nc3cc(C)[nH]n3)n1)C2 [Compound (I), (2-(((1R,3s,5S)-9-(ethylsulfonyl)-9-azabicyclo[3.3.1]nonan-3-yl)(methyl)amino)-5-fluoro-6-((5-methyl-1H-pyrazol-3-yl)amino)pyrimidin-4-yl)methanol]
IC50 [1]: 3.16 nM | Ki (JAK1): 0.0631 nM | Ki (JAK2): 0.0631 nM | Inhibition of TPA-induced increase in ear thickness (mean % inh ± SEM (n)) [2]: 34.9% | Inhibition of TPA-induced increase in ear thickness (mean % inh ± SEM (n)) ([2]; 30 μg/ear dosed as solution, 6 hours after TPA): 6.6% ± 1.1% | Inhibition of TPA-induced increase in ear thickness (mean % inh ± SEM (n)) ([2]; 100 μg/ear dosed as solution, 6 hours after TPA): 2.4% ± 0.7% | Inhibition of TPA-induced increase in ear thickness (mean % inh ± SEM (n)) ([2]; 300 μg/ear dosed as solution, 6 hours after TPA): 35.5% ± 3.1% | Inhibition of TPA-induced increase in ear thickness (mean % inh ± SEM (n)) ([2]; 1000 μg/ear dosed as solution (highest dose), 6 hours after TPA): 54.8 ± 2.6% | Inhibition of TPA-induced increase in ear thickness (mean % inh ± SEM (n)) ([2]; 0.5% Ointment, 20 μl/ear, 30 min before TPA, 6 hours after TPA): 34.9% ± 3.3% (12) | effect on TPA-induced increase in ear thickness (in words) ([2]; dosed as a solution): dose-dependent effect; also recorded: dose dependent manner
